Experimental data taken from patent US20250270170A1, “2,3-DIMETHOXY-5-METHYL-1,4-BENZOQUINONE ALKYL ALCOHOL DERIVATIVE AND USE THEREOF” (BEIJING ANJIANXI BIO-MEDICAL TECHNOLOGY CO., LTD., priority 2021, published 2025).
Entries after “also recorded” stand apart in the source; their conditions may differ. Marks after values point to notes of the source that are not given here.

How the values were obtained:
[1] = tested on: VEGF/VEGFR/p-VEGFR and other proteins in NCI-N87 transplanted tumor tissues; experiment: Example 4: Western blot of NCI-N87 transplanted tumor tissue proteins; type: in vivo, nude mice; settings: Western blot grayscale vs blank solvent group, compound of formula (I) 2 mg/kg
Experimental: Western Blot technology was used to quantitatively detect the expression of VEGF/VEGFR, Survivin and other proteins in tumor tissues. […] In this study, 50 μg of tumor tissue proteins were added to each well, and the working concentrations of the antibodies were diluted according to the instructions. Briefly: the tumor tissue was taken, lysed with an RIPA protein lysis solution containing 1% PMSF and mixed protease inhibitors, and centrifuged at 12000×g for 20 min to take the supernatant; the concentration of proteins was detected by BCA method; 10% SDS-PAGE gel electrophoresis was performed; the proteins from SDS-PAGE gel were transfered to a PVDF membrane by semi-dry […]; the membrane was blocked with a fast blocking buffer for 10 minutes, and a primary antibody at corresponding working concentration was added, and incubated at 4° C. overnight; the membrane was washed with TBST for 3 times, and incubated with a secondary antibody at room temperature for 1 h; after washing the membrane three times, an image was developed and saved, and the grayscale values were analyzed with Image lab; the anti-Vinculin antibody was used as an internal reference control antibody.
The grayscale of the Western blot bands were calculated with Image J software, and Graphpad Prism 5 was used for related statistical processing. A two-sided t-test was used for comparison between two groups. P>0.05 means no significance (NS), P<0.05 is *, […], and P<0.001 is ***.

[2] = tested on: human gastric cancer NCI-N87 transplanted tumor; experiment: Example 3: tumor growth in NCI-N87 transplanted tumor model in nude mice; type: in vivo, BALB/c nude mice
Experimental: Female BALB/c nude mice (age: 6 to 7 weeks) were purchased from Beijing Vital River Laboratory Animal Technology Co., Ltd. The mice were raised in an SPF animal room at a temperature of 20 to 25° C., a relative humidity of 40% to 70%, and a cycle of 12 hours of light and 12 hours of dark. The animals had free access to water and food. After about 1 week of normal feeding, mice with good physical condition after the veterinary examination were selected for this assay. Before grouping, a marker was used to mark on the base of the animals' tail. After grouping, each animal was marked with an ear cutout.
The solution was prepared before each administration. An appropriate amount of DDP was weighed and put into a glass bottle. Then, an appropriate volume of physiological saline was added to the bottle, and vortexed (may be heated in a water bath to 50 to 60° C.) to completely dissolve the drug.
An appropriate amount of the compound was weighed and added to an appropriate volume of dimethylacetamide (DMA). The mixture was vortexed to prepare a stock solution (8 mg·mL^−1). The stock solution was prepared once a week, divided into packages and then stored in a 2 to 8° C. refrigerator. One tube was taken out before each administration, and an appropriate volume of 30% Solutol and PEG400 was added while vortexing. The mixture was vortexed and mixed well. Then, an appropriate volume of physiological saline was added, and mixed well to give an administration formulation with a concentration of 0.4 mg·mL^−1, in which the volume ratio of DMA: 30% Solutol: PEG 400: physiological saline was 5:20:20:55.
Human gastric cancer cells NCI-N87 were obtained from the Cell Bank of the Type Culture Collection Committee of Chinese Academy of Sciences (cryopreserved in liquid nitrogen in the laboratory).
NCI-N87 cells were routinely cultured in a RPMI-1640 culture medium containing 10% fetal bovine serum under culture conditions of 37° C. and 5% CO2. The cells were digested with 0.25% trypsin, and passaged according to the cell growth conditions with a passaging ratio of 1:3 to 1:5.
The NCI-N87 cells in the logarithmic growth phase were collected, counted and resuspended in a serum-free RPMI-1640 medium, and the cell concentration was adjusted to 5×10^7 cells/mL. The cells were pipetted with a pipette to disperse them evenly, and the cells were put into a 50-mL centrifuge tube, which was placed in an ice box. A 1-mL syringe was used to draw the cell suspension, which was injected subcutaneously into the axilla of the front right limb of a nude mouse. Each animal was inoculated with 100 μL (5×10^6 cells/mouse) to establish an NCI-N87 transplanted tumor model in nude mice. After the inoculation, the animal status and tumor growth were regularly observed, and the tumor diameter was measured using an electronic vernier caliper. The data were input into an Excel spreadsheet to calculate the tumor volume. When the tumor volume reached 100 to 300 mm^3, 72 animals in good health and with similar tumor volumes were selected and divided into 9 groups (n=8) using randomized block method. The day of grouping was regarded as the first day of the assay (D1). After the start of the assay, the tumor diameter was measured twice a week, the tumor volume was calculated, and the animal body weight was also weighed and recorded.
The calculation formula of tumor volume (TV) is as follows: […]
wherein l represents the long diameter of a tumor (mm); and w represents the short diameter of a tumor (mm).
On the last day of the assay (D44), the animals were anesthetized using CO2 inhalation 1 hour after administration (R01) and sacrificed, and tumor tissues were collected, weighed, and photographed.
The calculation formula of tumor growth inhibition rate TGI (%) is: […]

[3] = D16, DDP 4/4/5/5 mg/kg i.p. QW×4
[4] = D20, DDP 4/4/5/5 mg/kg i.p. QW×4
[5] = D23, DDP 4/4/5/5 mg/kg i.p. QW×4
[6] = D27, DDP 4/4/5/5 mg/kg i.p. QW×4
[7] = D30, DDP 4/4/5/5 mg/kg i.p. QW×4
[8] = D34, DDP 4/4/5/5 mg/kg i.p. QW×4
[9] = D37, DDP 4/4/5/5 mg/kg i.p. QW×4
[10] = D44, DDP 4/4/5/5 mg/kg i.p. QW×4

## COC1=C(OC)C(=O)C(CCCCCCCCCCOC(=O)Cc2c(C)n(C(=O)c3ccc(Cl)cc3)c3ccc(OC)cc23)=C(C)C1=O [compound of formula (I)]
[1]; 2 mg/kg
  expression of CyclinD1: down-regulated; also recorded: downregulated
  expression of PCNA: up-regulated; also recorded: upregulated
  expression of VEGFA: down-regulated; also recorded: downregulated
  expression of VEGFR2: down-regulated; also recorded: downregulated
  expression of anti-apoptotic protein Survivin: down-regulated; also recorded: downregulated
  expression of cell cycle regulatory protein P21: up-regulated; also recorded: upregulated
  expression of p-VEGFR2: down-regulated; also recorded: downregulated
  expression of pro-apoptotic Bax: down-regulated; also recorded: downregulated
  expression of β-catenin: down-regulated; also recorded: downregulated
[2]; D13, 2 mg/kg i.g. BID×28
  Mean tumor volume: 141 ± 9 mm^3
[2]; D13, 6 mg/kg i.g. BID×28
  Mean tumor volume: 140 ± 8 mm^3
[2]; D13, 18 mg/kg i.g. BID×28
  Mean tumor volume: 134 ± 8 mm^3
[2]; D16, 2 mg/kg i.g. BID×28
  Mean tumor volume: 180 ± 17 mm^3
  tumor growth inhibition rate: (52%)
[2]; D16, 6 mg/kg i.g. BID×28
  Mean tumor volume: 183 ± 10 mm^3
  tumor growth inhibition rate: (48%)
[2]; D16, 18 mg/kg i.g. BID×28
  Mean tumor volume: 175 ± 19 mm^3
  tumor growth inhibition rate: (50%)
[2]; D20, 2 mg/kg i.g. BID×28
  Mean tumor volume: 218 ± 17** mm^3
  tumor growth inhibition rate: (53%)
[2]; D20, 6 mg/kg i.g. BID×28
  Mean tumor volume: 220 ± 11** mm^3
  tumor growth inhibition rate: (51%)
[2]; D20, 18 mg/kg i.g. BID×28
  Mean tumor volume: 209 ± 27* mm^3
  tumor growth inhibition rate: (54%)
[2]; D23, 2 mg/kg i.g. BID×28
  Mean tumor volume: 253 ± 24** mm^3
  tumor growth inhibition rate: (53%)
[2]; D23, 6 mg/kg i.g. BID×28
  Mean tumor volume: 255 ± 16** mm^3
  tumor growth inhibition rate: (52%)
[2]; D23, 18 mg/kg i.g. BID×28
  Mean tumor volume: 245 ± 36* mm^3
  tumor growth inhibition rate: (54%)
[2]; D27, 2 mg/kg i.g. BID×28
  Mean tumor volume: 294 ± 30** mm^3
  tumor growth inhibition rate: (60%)
[2]; D27, 6 mg/kg i.g. BID×28
  Mean tumor volume: 302 ± 24** mm^3
  tumor growth inhibition rate: (58%)
[2]; D27, 18 mg/kg i.g. BID×28
  Mean tumor volume: 297 ± 48** mm^3
  tumor growth inhibition rate: (58%)
[2]; D30, 2 mg/kg i.g. BID×28
  Mean tumor volume: 332 ± 32** mm^3
  tumor growth inhibition rate: (65%)
[2]; D30, 6 mg/kg i.g. BID×28
  Mean tumor volume: 348 ± 31** mm^3
  tumor growth inhibition rate: (62%)
[2]; D30, 18 mg/kg i.g. BID×28
  Mean tumor volume: 354 ± 64** mm^3
  tumor growth inhibition rate: (60%)
[2]; D34, 2 mg/kg i.g. BID×28
  Mean tumor volume: 370 ± 41** mm^3
  tumor growth inhibition rate: (70%)
[2]; D34, 6 mg/kg i.g. BID×28
  Mean tumor volume: 412 ± 37** mm^3
  tumor growth inhibition rate: (64%)
[2]; D34, 18 mg/kg i.g. BID×28
  Mean tumor volume: 444 ± 79** mm^3
  tumor growth inhibition rate: (59%)
[2]; D37, 2 mg/kg i.g. BID×28
  Mean tumor volume: 450 ± 46** mm^3
  tumor growth inhibition rate: (68%)
[2]; D37, 6 mg/kg i.g. BID×28
  Mean tumor volume: 508 ± 38** mm^3
  tumor growth inhibition rate: (62%)
[2]; D37, 18 mg/kg i.g. BID×28
  Mean tumor volume: 492 ± 87** mm^3
  tumor growth inhibition rate: (64%)
[2]; D44, 2 mg/kg i.g. BID×28
  Mean tumor volume: 536 ± 52** mm^3
  tumor growth inhibition rate: (68%)
[2]; D44, 6 mg/kg i.g. BID×28
  Mean tumor volume: 595 ± 57** mm^3
  tumor growth inhibition rate: (63%)
[2]; D44, 18 mg/kg i.g. BID×28
  Mean tumor volume: 590 ± 113** mm^3
  tumor growth inhibition rate: (63%)
[2]; NCI-N87 transplanted tumor model, summary of Table 5
  anti-tumor effect compared with cisplatin: better anti-tumor effect

## N.N.[Cl][Pt][Cl] [DDP, cisplatin]
[1]
  expression of CyclinD1: up-regulated
  expression of VEGFA: down-regulated
  expression of VEGFR2: up-regulated
  expression of anti-apoptotic protein Survivin: down-regulated
  expression of cell cycle regulatory protein P21: down-regulated
  expression of p-VEGFR2: down-regulated
  expression of β-catenin: up-regulated
[2]; D13, DDP 4/4/5/5 mg/kg i.p. QW×4
  Mean tumor volume: 141 ± 9 mm^3
[2]; [3]
  Mean tumor volume: 194 ± 18 mm^3
  tumor growth inhibition rate: (36%)
[2]; [4]
  Mean tumor volume: 245 ± 22 mm^3
  tumor growth inhibition rate: (37%)
[2]; [5]
  Mean tumor volume: 276 ± 28* mm^3
  tumor growth inhibition rate: (43%)
[2]; [6]
  Mean tumor volume: 351 ± 22** mm^3
  tumor growth inhibition rate: (46%)
[2]; [7]
  Mean tumor volume: 413 ± 27** mm^3
  tumor growth inhibition rate: (51%)
[2]; [8]
  Mean tumor volume: 492 ± 33** mm^3
  tumor growth inhibition rate: (54%)
[2]; [9]
  Mean tumor volume: 580 ± 47** mm^3
  tumor growth inhibition rate: (55%)
[2]; [10]
  Mean tumor volume: 684 ± 45** mm^3
  tumor growth inhibition rate: (56%)
